Source: patent US20160083391A1, “TRICYCLIC PIPERAZINE DERIVATIVE” (Sunovion Pharmaceuticals Inc., priority 2014, published 2016)

Each compound was assayed on PDE1 (assay: In vitro HTRF PDE1 inhibition assay). Conditions: HTRF cGMP assay, 100 nM cyclic GMP, PDE (1A3, 1B or 1C) with calmodulin, 45 minutes at 37° C.; isoform of the tabulated values not stated.
Assay type: biochemical
Procedure, shortened: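 HTRF cGMP competition assay: PDE1A3, 1B or 1C with calmodulin acting on 100 nM cGMP in 1% DMSO, pH 7.4 buffer with Ca2+ and Mg2+, 45 min at 37 °C. Remaining cGMP detected with d2-cGMP and anti-cGMP cryptate (665/615 nm); IC50 reported as banded categories.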
COc1cccc(N2CCn3c(nc4c(cnn4C4CCCC4)c3=O)C2)c1 [Compound I-98, 1-Cyclopentyl-8-(3-methoxyphenyl)-6,7,8,9-tetrahydropyrazino[1,2-a]pyrazolo[3,4-d]pyrimidin-4(1H)-one] showed an IC50 of less than 1 µM. Cc1nn(C2CCCC2)c2nc3n(c(=O)c12)CCN(Cc1ccc(Cl)cc1)C3 [Compound I-111, 8-(4-Chlorobenzyl)-1-cyclopentyl-3-methyl-6,7,8,9-tetrahydropyrazino[1,2-d]pyrazolo[3,4-d]pyrimidin-4(1H)-one] was tested, and the IC50 was greater than 10 µM. Compound COc1ccc(CN2CCn3c(nc4c(c(C)nn4C4CCCC4)c3=O)C2)cc1 [Compound I-112, 1-Cyclopentyl-8-(4-methoxybenzyl)-3-methyl-6,7,8,9-tetrahydropyrazino[1,2-d]pyrazolo[3,4-d]pyrimidin-4(1H)-one] has an IC50 greater than 10 µM. For O=C(c1ccc(Cl)cc1)N1CCn2c(nc3c(cnn3C3CCCC3)c2=O)C1 [Compound I-115, 8-(4-Chlorobenzoyl)-1-cyclopentyl-6,7,8,9-tetrahydropyrazino[1,2-a]pyrazolo[3,4-d]pyrimidin-4(1H)-one], the IC50 was 1 to 10 µM. COc1ccc(C(=O)N2CCn3c(nc4c(cnn4C4CCCC4)c3=O)C2)cc1 [Compound I-116, 1-Cyclopentyl-8-(4-methoxybenzoyl)-6,7,8,9-tetrahydropyrazino[1,2-a]pyrazolo[3,4-d]pyrimidin-4(1H)-one] gave an IC50 of less than 1 µM. For COc1ccc(CN2CCn3c(nc4c(C5CCCC5)n[nH]c4c3=O)C2)cc1 [Compound I-123, 3-Cyclopentyl-6-(4-methoxybenzyl)-5,6,7,8-tetrahydropyrazino[1,2-a]pyrazolo[4,3-d]pyrimidin-10(1H)-one], the IC50 was greater than 10 µM. O=c1c2[nH]nc(C3CCCC3)c2nc2n1CCN(Cc1ccc(Cl)cc1)C2 [Compound I-124, 6-(4-Chlorobenzyl)-3-cyclopentyl-5,6,7,8-tetrahydropyrazino[1,2-a]pyrazolo[4,3-d]pyrimidin-10(1H)-one] gave an IC50 of 1 to 10 µM. COc1ccc(CN2CCn3c(nc4c(ncn4C4CCCC4)c3=O)C2)cc1 [Compound I-125, 3-Cyclopentyl-6-(4-methoxybenzyl)-5,6,7,8-tetrahydropyrazino[1,2-a]purin-10(3H)-one] was tested, and the IC50 was greater than 10 µM. Compound O=c1c2ncn(C3CCCC3)c2nc2n1CCN(Cc1ccc(Cl)cc1)C2 [Compound I-126, 6-(4-Chlorobenzyl)-3-cyclopentyl-5,6,7,8-tetrahydropyrazino[1,2-a]purin-10(3H)-one] has an IC50 greater than 10 µM. COc1ccc(CN2CCn3c(nc4c(nnn4C4CCCC4)c3=O)C2)cc1 [Compound I-127, 3-Cyclopentyl-6-(4-methoxybenzyl)-5,6,7,8-tetrahydropyrazino[1,2-a][1,2,3]triazolo[4,5-d]pyrimidin-10(3H)-one] showed an IC50 greater than 10 µM. Compound O=c1c2nnn(C3CCCC3)c2nc2n1CCN(Cc1ccc(Cl)cc1)C2 [Compound I-128, 6-(4-Chlorobenzyl)-3-cyclopentyl-5,6,7,8-tetrahydropyrazino[1,2-a][1,2,3]triazolo[4,5-d]pyrimidin-10(3H)-one] has an IC50 greater than 10 µM. Work on COc1ccc(CN2CCn3c(nc4c(C5CCCC5)noc4c3=O)C2)cc1 [Compound I-129, 3-Cyclopentyl-6-(4-methoxybenzyl)-7,8-dihydro-5H-isoxazolo[4,5-d]pyrazino[1,2-a]pyrimidin-10(6H)-one] yielded an IC50 of 1 to 10 µM. O=c1c2onc(C3CCCC3)c2nc2n1CCN(Cc1ccc(Cl)cc1)C2 [Compound I-130, 6-(4-Chlorobenzyl)-3-cyclopentyl-7,8-dihydro-5H-isoxazolo[4,5-d]pyrazino[1,2-a]pyrimidin-10(6H)-one] was tested, and the IC50 was 1 to 10 µM. In the case of COc1ccc(CN2CCn3c(nn4c(C5CCCC5)nnc4c3=O)C2)cc1 [Compound I-131, 3-Cyclopentyl-7-(4-methoxybenzyl)-8,9-dihydro-6H-pyrazino[2,1-c][1,2,4]triazolo[3,4-f][1,2,4]triazin-11(7H)-one], the IC50 is reported as less than 1 µM. Compound O=c1c2nnc(C3CCCC3)n2nc2n1CCN(Cc1ccc(Cl)cc1)C2 [Compound I-132, 7-(4-Chlorobenzyl)-3-cyclopentyl-8,9-dihydro-6H-pyrazino[2,1-c][1,2,4]triazolo[3,4-f][1,2,4]triazin-11(7H)-one] has an IC50 of less than 1 µM. In the case of COc1ccc(CN2CCn3c(nn4c(C5CCCC5)ncc4c3=O)C2)cc1 [Compound I-133, 3-Cyclopentyl-7-(4-methoxybenzyl)-8,9-dihydro-6H-imidazo[5,1-f]pyrazino[2,1-c][1,2,4]triazin-11(7H)-one], the IC50 is reported as less than 1 µM. In the case of O=c1c2cnc(C3CCCC3)n2nc2n1CCN(Cc1ccc(Cl)cc1)C2 [Compound I-134, 7-(4-Chlorobenzyl)-3-cyclopentyl-8,9-dihydro-6H-imdazo[5,1-f]pyrazino[2,1-c][1,2,4]triazin-11(7H)-one], the IC50 is reported as less than 1 µM. Compound CC(C)n1ncc2c(=O)n3c(nc21)CN(Cc1cccnc1)CC3 [Compound I-135, 1-Isopropyl-8-(pyridin-3-ylmethyl)-6,7,8,9-tetrahydropyrazino[1,2-a]pyrazolo[3,4-d]pyrimidin-4(1H)-one] has an IC50 of less than 1 µM. CC(C)n1ncc2c(=O)n3c(nc21)CN(Cc1ccncc1)CC3 [Compound I-136, 1-Isopropyl-8-(pyridin-4-ylmethyl)-6,7,8,9-tetrahydropyrazino[1,2-a]pyrazolo[3,4-d]pyrimidin-4(1H)-one] showed an IC50 of 1 to 10 µM. With CC(C)n1ncc2c(=O)n3c(nc21)CN(Cc1cccc(F)c1)CC3 [Compound I-137, 8-(3-Fluorobenzyl)-1-isopropyl-6,7,8,9-tetrahydropyrazino[1,2-a]pyrazolo[3,4-d]pyrimidin-4(1H)-one] the IC50 was 1 to 10 µM. With CC(C)n1ncc2c(=O)n3c(nc21)CN(Cc1ccc(F)cc1)CC3 [Compound I-138, 8-(4-Fluorobenzyl)-1-isopropyl-6,7,8,9-tetrahydropyrazino[1,2-a]pyrazolo[3,4-d]pyrimidin-4(1H)-one] the IC50 was greater than 10 µM. COc1cc(CN2CCn3c(nc4c(cnn4C(C)C)c3=O)C2)ccc1F [Compound I-139, 8-(4-Fluoro-3-methoxybenzyl)-1-isopropyl-6,7,8,9-tetrahydropyrazino[1,2-a]pyrazolo[3,4-d]pyrimidin-4(1H)-one] gave an IC50 greater than 10 µM. COc1ccc(CN2CCn3c(nc4c(cnn4C(C)C)c3=O)C2)cc1F [Compound I-140, 8-(3-Fluoro-4-methoxybenzyl)-1-isopropyl-6,7,8,9-tetrahydropyrazino[1,2-a]pyrazolo[3,4-d]pyrimidin-4(1H)-one] showed an IC50 of less than 1 µM. CCOc1cccc(N2CCn3c(nc4c(cnn4C(C)C)c3=O)C2)c1 [Compound I-141, 8-(3-Ethoxyphenyl)-1-isopropyl-6,7,8,9-tetrahydropyrazino[1,2-a]pyrazolo[3,4-d]pyrimidin-4(1H)-one] was tested, and the IC50 was less than 1 µM. With CC(C)n1ncc2c(=O)n3c(nc21)CN(c1ccc(F)cc1)CC3 [Compound I-142, 8-(4-Fluorophenyl)-1-isopropyl-6,7,8,9-tetrahydropyrazino[1,2-a]pyrazolo[3,4-d]pyrimidin-4(1H)-one] the IC50 was less than 1 µM. With CC(C)n1ncc2c(=O)n3c(nc21)CN(c1cccnc1)CC3 [Compound I-143, 1-Isopropyl-8-(pyridin-3-yl)-6,7,8,9-tetrahydropyrazino[1,2-a]pyrazolo[3,4-d]pyrimidin-4(1H)-one] the IC50 was 1 to 10 µM. COc1cncc(N2CCn3c(nc4c(cnn4C(C)C)c3=O)C2)c1 [Compound I-144, 1-Isopropyl-8-(5-methoxypyridin-3-yl)-6,7,8,9-tetrahydropyrazino[1,2-a]pyrazolo[3,4-d]pyrimidin-4(1H)-one] gave an IC50 of less than 1 µM. CC(C)n1ncc2c(=O)n3c(nc21)CN(c1ccncc1)CC3 [Compound I-145, 1-Isopropyl-8-(pyridin-4-yl)-6,7,8,9-tetrahydropyrazino[1,2-a]pyrazolo[3,4-d]pyrimidin-4(1H)-one] was tested, and the IC50 was less than 1 µM. For COc1ccc(CN2CCCn3c(nc4c(cnn4C(C)C)c3=O)C2)cc1 [Compound I-156, 1-Isopropyl-9-(4-methoxybenzyl)-7,8,9,10-tetrahydro-1H-pyrazolo[3′,4′:4,5]pyrimido[1,2-a][1,4]diazepin-4(6H)-one], the IC50 was 1 to 10 µM. Work on COc1ccc(CN2CCc3nc4c(cnn4C(C)C)c(=O)n3CC2)cc1 [Compound I-157, 1-Isopropyl-8-(4-methoxybenzyl)-7,8,9,10-tetrahydro-1H-pyrazolo[3′,4′:4,5]pyrimido[1,2-d][1,4]diazepin-4(6H)-one] yielded an IC50 greater than 10 µM. COCCn1ncc2c(=O)n3c(nc21)CN(Cc1ccc(OC)cc1)CC3 [Compound I-158, 8-(4-Methoxybenzyl)-1-(2-methoxyethyl)-6,7,8,9-tetrahydropyrazino[1,2-a]pyrazolo[3,4-d]pyrimidin-4(1H)-one] gave an IC50 of 1 to 10 µM. COCCn1ncc2c(=O)n3c(nc21)CN(Cc1ccc(Cl)cc1)CC3 [Compound I-159, 8-(4-Chlorobenzyl)-1-(2-methoxyethyl)-6,7,8,9-tetrahydropyrazino[1,2-a]pyrazolo[3,4-d]pyrimidin-4(1H)-one] showed an IC50 of 1 to 10 µM. COCCn1ncc2c(=O)n3c(nc21)CN(Cc1ccc(Cl)c(Cl)c1)CC3 [Compound I-160, 8-(3,4-Dichlorobenzyl)-1-(2-methoxyethyl)-6,7,8,9-tetrahydropyrazino[1,2-a]pyrazolo[3,4-d]pyrimidin-4(1H)-one] was tested, and the IC50 was greater than 10 µM. With COCCn1ncc2c(=O)n3c(nc21)CN(Cc1cccc(OC)c1)CC3 [Compound I-161, 8-(3-Methoxybenzyl)-1-(2-methoxyethyl)-6,7,8,9-tetrahydropyrazino[1,2-a]pyrazolo[3,4-d]pyrimidin-4(1H)-one] the IC50 was greater than 10 µM. In the case of COCCn1ncc2c(=O)n3c(nc21)CN(Cc1cccc(Cl)c1)CC3 [Compound I-162, 8-(3-Chlorobenzyl)-1-(2-methoxyethyl)-6,7,8,9-tetrahydropyrazino[1,2-a]pyrazolo[3,4-d]pyrimidin-4(1H)-one], the IC50 is reported as 1 to 10 µM. With COCCn1ncc2c(=O)n3c(nc21)CN(Cc1ccc2c(c1)OCO2)CC3 [Compound I-163, 8-(Benzo[d][1.3]dioxol-5-ylmethyl)-1-(2-methoxyethyl)-6,7,8,9-tetrahydropyrazino[1,2-a]pyrazolo[3,4-d]pyrimidin-4(1H)-one] the IC50 was greater than 10 µM.
